Source: patent publication US20200024278A1, “COMPOSITION COMPRISING ANTIBIOTIC COMPOUND AND AN HETEROCYCLIC COMPOUND AND THEIR USE IN PREVENTING OR TREATING BACTERIAL INFECTIONS” (MUTABILIS, priority 2016, published 2020)

How the values were obtained:
Experiment in all cases: MIC, broth microdilution (CLSI), substance alone or ATB combined with compound at 4 or 8 μg/mL
ECO 190317 = type: cell-based, E. coli; settings: ECO 190317
In short: (§1)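 Growth inhibition endpoint, read visually after 16-20 h at 35° C in ambient air. Cation-adjusted Mueller-Hinton broth, inoculum 5·10^5 CFU/mL, CLSI M7-A7 protocol.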

ECO UFR39 = type: cell-based, E. coli; settings: ECO UFR39; for MIC ATB combined with Example compound: compound @4 μg/ml
In short: as §1

KPN 6299 = type: cell-based, K. pneumoniae; settings: MIC of CIP, compound @4 μg/ml
In short: as §1

KPN BAA-1898 = type: cell-based, K. pneumoniae; settings: KPN BAA-1898
In short: as §1

KPN UFR42 = type: cell-based, K. pneumoniae; settings: KPN UFR42; for MIC ATB combined with Example compound: compound @4 μg/ml
In short: as §1

ECL P99 = type: cell-based, E. cloacae; settings: ECL P99
In short: as §1

PAE 105250 = type: cell-based, P. aeruginosa; settings: PAE 105250; for MIC ATB combined with compound / MIC ATB combined with Example compound: compound @4 μg/ml
In short: as §1

PAE UFR48 = type: cell-based, P. aeruginosa; settings: PAE UFR48; for MIC ATB combined with compound / MIC ATB combined with Example compound: compound @4 μg/ml
In short: as §1

PAE UFR90 = type: cell-based, P. aeruginosa; settings: PAE UFR90; for MIC ATB combined with compound / MIC ATB combined with Example compound: compound @4 μg/ml
In short: as §1

SAU 29213 = type: cell-based, S. aureus; settings: for MIC ATB combined with compound / MIC ATB combined with Example compound: compound @4 μg/ml, SAU 29213
In short: as §1

SPN 49619 = type: cell-based, S. pneumoniae; settings: SPN 49619; for MIC ATB combined with compound / MIC ATB combined with Example compound: compound @4 μg/ml
In short: as §1

ABA UFR152 = type: cell-based, A. baumannii; settings: Acinetobacter baumannii, substance alone, read-out: MIC
In short: as §1

ABA UFR154 = type: cell-based, A. baumannii; settings: Acinetobacter baumannii, substance alone, read-out: MIC
In short: as §1

[1] = Escherichia coli, substance alone, read-out: MIC
[2] = Pseudomonas aeruginosa, substance alone, read-out: MIC

O=C1N2CC(c3ncco3)=C[C@H](C2)N1OS(=O)(=O)[O-].[Na+] [Example 9, sodium [(5R)-3-(oxazol-2-yl)-7-oxo-1,6-diazabicyclo[3.2.1]oct-3-en-6-yl] sulfate]
MIC (ECO 190317; [1]): 0.5 µg/mL | MIC ATB combined with Example compound (ECO 190317; MIC of CIP, compound @4 μg/ml): <0.031 µg/mL | MIC (ECO UFR39; [1]): 2 µg/mL | MIC ATB combined with Example compound (ECO UFR39; MIC of CIP): <0.031 µg/mL | MIC ATB combined with Example compound (ECO UFR39; MIC of CPO): <0.031 µg/mL | MIC ATB combined with Example compound (KPN 6299): <=0.031 μg/mL | MIC (KPN BAA-1898; Klebsiella pneumoniae, BAA1898, substance alone, read-out: MIC): 2 µg/mL | MIC ATB combined with Example compound (KPN BAA-1898; MIC of CIP, compound @4 μg/ml): <0.031 µg/mL | MIC (KPN UFR42; Klebsiella pneumoniae, substance alone, read-out: MIC): 8 µg/mL | MIC ATB combined with Example compound (KPN UFR42; MIC of CIP): <0.031 µg/mL | MIC ATB combined with Example compound (KPN UFR42; MIC of CPO): <0.031 µg/mL | MIC (ECL P99; Enterobacter cloacae, substance alone, read-out: MIC): 2 µg/mL | MIC ATB combined with Example compound (ECL P99; MIC of CIP, compound @4 μg/ml): <0.031 µg/mL | MIC ATB combined with compound (PAE 105250; ATB ATM): 8 µg/mL | MIC ATB combined with compound (PAE 105250; ATB FEP): 8 µg/mL | MIC ATB combined with compound (PAE 105250; ATB FOS): >128 µg/mL | MIC ATB combined with compound (PAE 105250; ATB MEM): 4 µg/mL | MIC ATB combined with compound (PAE 105250; ATB PIP): 32 µg/mL | MIC ATB combined with Example compound (PAE 105250; MIC of CIP): 0.125 µg/mL | MIC ATB combined with Example compound (PAE 105250; MIC of CPO): 32 µg/mL | MIC (PAE 105250; [2]): > 32 µg/mL | MIC ATB combined with compound (PAE UFR48; ATB ATM): 128 µg/mL | MIC ATB combined with compound (PAE UFR48; ATB FEP): 32 µg/mL | MIC ATB combined with compound (PAE UFR48; ATB FOS): 32 µg/mL | MIC ATB combined with compound (PAE UFR48; ATB MEM): 2 µg/mL | MIC ATB combined with compound (PAE UFR48; ATB PIP): 32 µg/mL | MIC ATB combined with Example compound (PAE UFR48; MIC of CIP): 4 µg/mL | MIC ATB combined with Example compound (PAE UFR48; MIC of CPO): >32 µg/mL | MIC (PAE UFR48; [2]): 128 µg/mL | MIC ATB combined with compound (PAE UFR90; ATB ATM): 128 µg/mL | MIC ATB combined with compound (PAE UFR90; ATB FEP): 4 µg/mL | MIC ATB combined with compound (PAE UFR90; ATB FOS): 4 µg/mL | MIC ATB combined with compound (PAE UFR90; ATB MEM): 1 µg/mL | MIC ATB combined with compound (PAE UFR90; ATB PIP): 16 µg/mL | MIC ATB combined with Example compound (PAE UFR90; MIC of CIP): 1 µg/mL | MIC ATB combined with Example compound (PAE UFR90; MIC of CPO): 8 µg/mL | MIC (PAE UFR90; [2]): > 128 µg/mL | MIC ATB combined with compound (SAU 29213; ATB ATM): <=0.031 μg/mL | MIC ATB combined with compound (SAU 29213; ATB FEP): <0.031 µg/mL | MIC ATB combined with compound (SAU 29213; ATB FOS): <0.125 µg/mL | MIC ATB combined with compound (SAU 29213; ATB MEM): <0.031 µg/mL | MIC ATB combined with compound (SAU 29213; ATB PIP): <0.031 µg/mL | MIC ATB combined with Example compound (SAU 29213; MIC of CIP): <31 ng/mL | MIC ATB combined with Example compound (SAU 29213; MIC of CLI): <1 ng/mL | MIC ATB combined with Example compound (SAU 29213; MIC of CPO): <31 ng/mL | MIC ATB combined with Example compound (SAU 29213; MIC of DAP): <2 ng/mL | MIC ATB combined with Example compound (SAU 29213; MIC of ERY): <=0.0020 μg/mL | MIC ATB combined with Example compound (SAU 29213; MIC of LZD): <7.8 ng/mL | MIC ATB combined with Example compound (SAU 29213; MIC of RIF): 2 ng/mL | MIC ATB combined with Example compound (SAU 29213; MIC of SYN): 3.9 ng/mL | MIC ATB combined with Example compound (SAU 29213; MIC of VAN): <3.9 ng/mL | MIC (SAU 29213; Staphylococcus aureus, substance alone, SAU 29213 (MSSA 29213), read-out: MIC): 8 µg/mL | MIC ATB combined with compound (SPN 49619; ATB ATM): <0.031 µg/mL | MIC ATB combined with compound (SPN 49619; ATB FEP): <=0.031 μg/mL | MIC ATB combined with compound (SPN 49619; ATB FOS): 4 µg/mL | MIC ATB combined with compound (SPN 49619; ATB MEM): <=0.031 μg/mL | MIC ATB combined with compound (SPN 49619; ATB PIP): <0.031 µg/mL | MIC ATB combined with Example compound (SPN 49619; MIC of CIP): 250 ng/mL | MIC ATB combined with Example compound (SPN 49619; MIC of CLI): 3.9 ng/mL | MIC ATB combined with Example compound (SPN 49619; MIC of CPO): <=0.031 μg/mL | MIC ATB combined with Example compound (SPN 49619; MIC of DAP): <2 ng/mL | MIC ATB combined with Example compound (SPN 49619; MIC of ERY): <2 ng/mL | MIC ATB combined with Example compound (SPN 49619; MIC of LZD): <=0.0078 μg/mL | MIC ATB combined with Example compound (SPN 49619; MIC of RIF): 0.24 ng/mL | MIC ATB combined with Example compound (SPN 49619; MIC of SYN): <=0.0020 μg/mL | MIC ATB combined with Example compound (SPN 49619; MIC of VAN): <3.9 ng/mL | MIC (SPN 49619; Streptococcus pneumoniae, substance alone, read-out: MIC): 8 µg/mL | MIC (ABA UFR152): > 32 µg/mL | MIC (ABA UFR154): > 32 µg/mL
